# Measurements taken from patent US10888549B2, “Pharmaceutical agents targeting cancer stem cells” (THE JOHNS HOPKINS UNIVERSITY, priority 2016, dated 2021).
# Experiments:
# Format in all cases: cell-based, human
# urothelial CSCs = assay: Sphere formation assay (CSC properties)
# Description: Sphere formation was induced by culturing cells (2×10^4/well) in DMEM/Ham's F12 50/50 Mix (Mediatech) supplemented with B-27 (Life Technologies), 20 ng/mL FGF-basic (Peprotech), 20 ng/mL EGF (Peprotech). Cell culture was performed in ultra-low attachment 6 well plates (Corning, Lowell, USA) for 10 days. The medium was replaced every other day. Sphere formation was evaluated using the inverted phase-contrast microscope, and single sphere with a diameter larger than 100 μm was counted using NIS-Elements Microscope Imaging Software. To redifferentiate spheres, spheres were plated in standard growth medium with 10% FBS in dishes supporting cell attachment, and incubated for 7 days. For self-renewal assay, primary spheres were collected by gentle centrifugation (5 min at 400×g), dissociated with Stempro Accutase Cell Dissociation Reagent (Life Technologies), and mechanically disrupted with a pipette. The cell suspension was sieved through 40 μm cell strainer cap filter to achieve a single-cell suspension, and then equal numbers of alive cells were plated in ultralow attachment plates to generate the second spheres. Again, spheres were counted on day 14 and digested to generate the third Spheres. All the experiments were performed in triplicate and repeated at least three times.
# let-7 = let-7 expression by Q-RT-PCR; conditions: parental or spheroid bladder cancer cells
# Description: Total RNA from cell lines was isolated using the RNeasy Plus Mini kit (Qiagen, Valencia, USA) according to the manufacturer's protocol. Total RNA extraction from bladder tissue was performed with the QIAzol Lysis Reagent (Qiagen) followed by phenol extraction and ethanol precipitation. Total RNA was eluted in DEPC treated water and stored at -80° C. Total RNA extraction from urine was performed using the […] Isolation Kit (Ambion, Austin, USA). These total RNA were converted to cDNA using the SuperScript III First-Strand Synthesis System (Life technologies, Carlsbad, USA), which was then used as a template for Q-RT-PCR. Q-RT-PCR was performed using the Fast SYBR Green Master Mix (Thermo Fisher Scientific, Waltham, USA) on a 7900HT Fast Real-Time PCR System (Life technologies) in triplicate. Micro RNA (miRNA) extraction was performed using the […] Isolation Kit, and was reverse transcribed using TaqMan reverse transcription kit (Applied Biosystems, Foster City, USA) and miRNA-specific RT primers provided with TaqMan microRNA assays (Applied Biosystems). Q-RT-PCR for miRNAs was performed using the TaqMan Universal PCR Master Mix according to the manufacturer's protocol. SDS software (Applied Biosystems) was used to determine cycle threshold (Ct) values. Expression level was quantified relative to β-actin for mRNA and RNU6B for miRNA using the 2-ΔΔCt method (12).
# MIRLET7BHG promoter = assay: Bisulfite sequencing of let-7 host gene promoter; conditions: bladder cancer cells
# Description: Cell pellets were digested with 1% sodium dodecyl sulfate and 50 μg/mL proteinase K (Roche, Nutley, USA) at 48° C. overnight. Isolation of genomic DNA from cell lines was performed with the phenol-chloroform extraction protocol followed by ethanol precipitation. Bisulfite treatment was conducted using an EpiTect Bisulfite Kit (QIAGEN, Valencia, USA), and was subsequently amplified via PCR using primers as shown in the following table. PCR products were purified using the QIAquick Gel Extraction kit (Qiagen), and sequenced by Genewiz DNA sequencing service (Genewiz, South Plainfield, USA). The data were analyzed using the Sequence Scanner v1.0 software (Life technologies). A methylation frequency of ≥50% of total CpG sites within the amplified region was considered “methylation-positive”. For demethylation, cells (1×10^6/T-75 flask) were treated with […] of the demethylating agent 5-Aza-dC (Sigma) dissolved in 50% acetic acid or were mock-treated with phosphate buffered saline (PBS) including the same amount of acetic acid every 24 hours for 5 days. When combined with the histone deacetylase inhibitor TSA (Sigma), 300 nmol/L TSA was added to the medium for the final 24 hours.
smiles,measurement,setting,value
"Cc1ccc(-c2cc(C(F)(F)F)nn2-c2ccc(S(N)(=O)=O)cc2)cc1 [celecoxib, Celecoxib]",sphere formation,"urothelial CSCs; COX2 inhibitor added to erlotinib, basal-type cells, 72 hours",impaired
same,sphere formation / sphere-forming ability,"urothelial CSCs; agent alone, bladder cancer cells",repressed
same,let-7 expression,let-7,restoration
same,promoter methylation of the let-7 host gene,MIRLET7BHG promoter,demethylated
